{
  "source": "paper PMC10713630",
  "about": "“Elucidation of the structural basis for ligand binding and translocation in conserved insect odorant receptor co-receptors” (Nature Communications, 2023)",
  "origin": "cited, not measured here",
  "key": {"[1]": {"tested_on": "MhraOR5 M209V", "design": "method as in Del Marmol et al. 3", "details": "ref Del Marmol et al. 3; cited from earlier work"}, "[2]": {"tested_on": "MhraOR5", "design": "method as in PMID 34349260", "details": "cited from earlier work"}, "[3]": {"tested_on": "MhraOR1 G169A", "design": "method as in Del Marmol et al. 3", "details": "ref Del Marmol et al. 3; cited from earlier work"}, "[4]": {"tested_on": "AgamOrco/AgamOR65", "details": "cited from earlier work"}},
  "data": [
    {"smiles": "CCN(CC)C(=O)c1cccc(C)c1", "note": "[DEET]", "values": [
      {"measurement": "Effect on DEET-induced channel response", "setting": "[1]", "value": "I"},
      {"measurement": "Agonist of MhraOR5", "setting": "[2]", "value": "agonists"}
    ]},
    {"smiles": "C=CCc1ccc(O)c(OC)c1", "note": "[Eugenol, eugenol]", "values": [
      {"measurement": "Effect on Eugenol-induced channel response", "setting": "[3]", "value": "I"},
      {"measurement": "Agonist of MhraOR5", "setting": "[2]", "value": "agonists"}
    ]},
    {"smiles": "CC(C)c1ccc(NC(=O)CSc2nnc(-c3ccncc3)n2C2CC2)cc1", "note": "[VUAA4]", "values": [
      {"measurement": "EC50", "setting": "[4]; AgamOrco/AgamOR65, ref Tailor et al. 1", "value": 2100, "unit": "nM"},
      {"measurement": "Potency relative to VUAA1", "setting": "[4]; ranked by EC50", "value": "greater potency"}
    ]}
  ]
}
